Data published in ChEMBL document CHEMBL1201862, “PubChem BioAssay data set” (2004).
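Following 48 hours of exposure in 96-well plates, responses at five concentrations were used to interpolate endpoints linearly. At the GI50, growth is halved.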 Calls of active or inactive are those of the source. No stated cut-off is given here; in the data, active = GI50 up to about 1.1 µM and inactive = higher.

How the values were obtained:
Assay in all cases: NCI tumour cell line growth inhibition, 48 h
MDA-MB-435 = tested on: MDA-MB-435
UO-31 = tested on: UO-31
M14 = tested on: M14
EKVX = tested on: EKVX
SK-MEL-28 = tested on: SK-MEL-28
SF-539 = tested on: SF-539
NCI/ADR-RES = tested on: NCI/ADR-RES
OVCAR-5 = tested on: OVCAR-5
MOLT-4 = tested on: MOLT-4
Hs-578T = tested on: Hs-578T
HL-60 = tested on: HL-60
NCI-H226 = tested on: NCI-H226
SN12C = tested on: SN12C
U-251 = tested on: U-251
NCI-H522 = tested on: NCI-H522
HCT-116 = tested on: HCT-116
MDA-MB-231 = tested on: MDA-MB-231
DU-145 = tested on: DU-145
IGROV-1 = tested on: IGROV-1
SNB-78 = tested on: SNB-78

SMILES	GI50 (MDA-MB-435)	GI50 (UO-31)	GI50 (M14)	GI50 (EKVX)	GI50 (SK-MEL-28)	GI50 (SF-539)	GI50 (NCI/ADR-RES)	GI50 (OVCAR-5)	GI50 (MOLT-4)	GI50 (Hs-578T)	GI50 (HL-60)	GI50 (NCI-H226)	GI50 (SN12C)	GI50 (U-251)	GI50 (NCI-H522)	GI50 (HCT-116)	GI50 (MDA-MB-231)	GI50 (DU-145)	GI50 (IGROV-1)	GI50 (SNB-78)
CCOC(=O)c1c(N2CCOCC2)[nH]c(=O)c(C(c2c(Cl)cccc2Cl)c2c(O)c(C(=O)OCC)c(N3CCOCC3)[nH]c2=O)c1O	3.48 µM (inactive)	2.47 µM (inactive)	2.4 µM (inactive)	18.9 µM (inactive)	1.93 µM (inactive)	5.11 µM (inactive)	18 µM (inactive)	14.4 µM (inactive)	2.07 µM (inactive)	4.86 µM (inactive)	1.96 µM (inactive)	13.8 µM (inactive)	4.92 µM (inactive)	4.8 µM (inactive)	1.83 µM (inactive)	4.39 µM (inactive)	12.3 µM (inactive)	12.2 µM (inactive)	4.09 µM (inactive)	–
N#Cc1c2c(c(N)oc1=O)C(c1ccccc1)CC(=O)N2 (stereo unspecified)	> 100 µM (inactive)	> 100 µM (inactive)	> 100 µM (inactive)	> 100 µM (inactive)	> 100 µM (inactive)	> 100 µM (inactive)	> 100 µM (inactive)	> 100 µM (inactive)	> 100 µM (inactive)	> 100 µM (inactive)	> 100 µM (inactive)	> 100 µM (inactive)	> 100 µM (inactive)	> 100 µM (inactive)	> 100 µM (inactive)	> 100 µM (inactive)	> 100 µM (inactive)	> 100 µM (inactive)	> 100 µM (inactive)	–
C=C(Cl)C(Cl)(CBr)CCC(Cl)C(C)C (stereo unspecified)	6.98 µM (inactive)	2.94 µM (inactive)	22.2 µM (inactive)	14.7 µM (inactive)	1.87 µM (inactive)	1.3 µM (inactive)	8.55 µM (inactive)	10.8 µM (inactive)	> 39.9 µM (inactive)	1.16 µM (inactive)	0.226 µM (active)	30 µM (inactive)	13.2 µM (inactive)	0.647 µM (active)	5.93 µM (inactive)	1.37 µM (inactive)	3.95 µM (inactive)	1.37 µM (inactive)	9.31 µM (inactive)	–
COc1ccc2c(c1)C(OC)C1c3c(cc4c(c3-2)OCO4)CCN1C (stereo unspecified)	3.34 µM (inactive)	1.67 µM (inactive)	2.64 µM (inactive)	4.34 µM (inactive)	3.88 µM (inactive)	2.54 µM (inactive)	1.87 µM (inactive)	3.13 µM (inactive)	1.95 µM (inactive)	1.96 µM (inactive)	1.24 µM (inactive)	2.39 µM (inactive)	2.64 µM (inactive)	3.67 µM (inactive)	1.56 µM (inactive)	2.1 µM (inactive)	2.44 µM (inactive)	5.41 µM (inactive)	2.88 µM (inactive)	–
O=C1NC(N2CCOCC2)=N/C1=C\c1ccccc1O	> 100 µM (inactive)	> 100 µM (inactive)	> 100 µM (inactive)	> 100 µM (inactive)	> 100 µM (inactive)	> 100 µM (inactive)	> 100 µM (inactive)	> 100 µM (inactive)	> 100 µM (inactive)	> 100 µM (inactive)	58.1 µM (inactive)	> 100 µM (inactive)	> 100 µM (inactive)	> 100 µM (inactive)	> 100 µM (inactive)	> 100 µM (inactive)	> 100 µM (inactive)	> 100 µM (inactive)	> 100 µM (inactive)	–
O=C(N/C(=C\c1ccccc1)c1nc2ccccc2c(=O)o1)c1ccccc1	23.6 µM (inactive)	> 41.6 µM (inactive)	> 79.6 µM (inactive)	57.3 µM (inactive)	> 100 µM (inactive)	> 53.7 µM (inactive)	33.4 µM (inactive)	> 88.9 µM (inactive)	> 100 µM (inactive)	22.1 µM (inactive)	> 100 µM (inactive)	> 67.6 µM (inactive)	> 86.7 µM (inactive)	33.8 µM (inactive)	38.9 µM (inactive)	> 55.3 µM (inactive)	> 38.3 µM (inactive)	> 76.7 µM (inactive)	31.4 µM (inactive)	–
COc1ccc(-c2cc(N3CCN(c4ccc(Cl)cc4)CC3)c(C#N)c(=O)o2)cc1	–	4.79 µM (inactive)	35.1 µM (inactive)	11.4 µM (inactive)	6.9 µM (inactive)	3.55 µM (inactive)	–	> 100 µM (inactive)	–	–	> 100 µM (inactive)	2.52 µM (inactive)	15.1 µM (inactive)	21.2 µM (inactive)	–	12.6 µM (inactive)	–	–	10.9 µM (inactive)	11.7 µM (inactive)
COc1cc(/C=C2\CCC(C)C3=C(c4cc(OC)c(OC)c(OC)c4)C(C#N)=C(N)OC32)cc(OC)c1OC (stereo unspecified)	2.76 µM (inactive)	3.92 µM (inactive)	2.23 µM (inactive)	3.08 µM (inactive)	2.85 µM (inactive)	2.26 µM (inactive)	3.74 µM (inactive)	6.56 µM (inactive)	1.84 µM (inactive)	2.1 µM (inactive)	1.67 µM (inactive)	2.98 µM (inactive)	3.21 µM (inactive)	3.08 µM (inactive)	2.42 µM (inactive)	2.2 µM (inactive)	2.45 µM (inactive)	5.09 µM (inactive)	4.94 µM (inactive)	–
